Measurements published in patent US4968686A, “Acyclic pyrrolo [2,3-d]pyrimidine analogs as antiviral agents” (The Regents of The University of Michigan, priority 1989, dated 1990).
Like-named read-outs stand apart in the source and are kept apart here.

Columns and labels:
[1] = tested on: HSV-1; assay: HSV-1 titer (yield) reduction assay; format: cell-based, herpes simplex virus type 1 in KB cells; settings: read-out: HSV-1 Yield, 90% inhibitory concentration (I90)
Text: (§1) The 148 strain of HSV-1 was used in most experiments and was provided by Dr. T. W. Schafer of Schering corporation. The HF strain of HSV-1 was used in selected experiments and was obtained from Dr. G. H. Cohen, University of Pennsylvania. The Towne strain, plaque-purified isolate Po, of HCMV was a gift of Dr. Mark Stinski, University of Iowa.
(§2) HSV-1 was titered using monolayer cultures of BSC-1 cells. Cells were planted at 3×10^5 cells/well using 6-well cluster dishes. MEM(E) supplemented with 10% fetal bovine serum was employed as medium. After 22-24 hours, cells were 90% confluent and were inoculated in triplicate using at least three ten-fold dilutions with 0.2 ml of the virus suspension to be assayed and incubated in a humidified 4% CO2 […] atmosphere for one hour to permit viral adsorption. Following virus adsorption, the cell sheet was overlayed with 5 ml of MEM(E) with 5% serum plus 0.5% methocel (4000 CPS) and incubated an additional two to three days. Cells were fixed and stained with 0.1% crystal violet in 20% methanol and macroscopic plaques enumerated.
(§3) Plaque reduction experiments were HSV-1 were performed using monolayer cultures of BSC-1 cells. The assay was performed exactly as described above except that the 0.2 ml virus suspension contained approximately 100 p.f.u. of HSV-1. Compounds to be tested were dissolved in the overlay medium at concentrations usually ranging from 0.1 to 100 μM in half-or-one logarithm10 dilutions. Titer reduction assays were performed by planting KB cells in 25 cm^2 plastic tissue culture flasks 10 to 24 hours prior to infection. At the onset of experiments, logarithmically growing replicate monolayer cultures were 60 to 80% confluent and contained 2.5 to 4.5×10^6 cells/flask. Medium was decanted and the cultures were infected with 2 to 10 p.f.u. of HSV-1 per cell. Virus was contained in 1.0 ml of VGM supplemented with 5% fetal bovine serum. After a 1 hour adsorption period at […], the cell sheet was rinsed twice with 2 ml of VGM without serum to remove unadsorbed virus and 5 ml of VGM containing drugs at three to five selected concentrations added in duplicate. Following an 18- to 22-hour incubation at 37° C., infected monolayers were treated with EDTA-trypsin to suspend the cells; aliquots were removed, subjected to three cycles of freezing and thawing, and stored at -76° C. for subsequent virus assay. Virus was titered on BSC-1 cells as described above.
Drug effects were calculated as a percentage of the reduction in virus titers in the presence of each drug concentration compared to the titer obtained in the absence of drug. Acylovir was used as a positive control in all experiments.
(§4) Dose-response relationships were used to compare drug effects. These were constructed by linearly regressing the percent inhibition of parameters derived in the preceding sections against log drug concentrations. The 50% inhibitory (I50) concentrations were calculated from the regression lines using the methods described by Goldstein. See Goldstein, A., Biostatistics: An Introductory Text, MacMillan, N.Y., 1964, pp. 156-161. Along with the I50 concentration for visual cytotoxicity, the averaged I50 concentrations are compared to I50 concentrations for inhibition for HCMV or HSV-1 replication. Compounds for which the ratio of cytotoxicity I50 concentrations to antiviral I50 concentrations (in vitro therapeutic index) were greater than 10, were considered for further study.

[2] = tested on: HSV-1; assay: HSV-1 plaque reduction assay, strain S148; format: cell-based, herpes simplex virus type 1 (strain S148) in BSC-1 cells; settings: for IC50: Human alphaherpesvirus 1, Table 1, strain S148, BSC-1 cells, read-out: 50% Inhibitory Concentration HSV-1 Plaque
Text: as §1, §2, §3, §4

[3] = tested on: KB cells; assay: cells; format: cell-based, human; settings: Homo sapiens; [3H]dThd incorporation, KB cells; read-out: I50 on [3H]dThd incorporation
Method: KB or HFF cells were planted using a Costar Transplate-96 (Costar, Cambridge, Mass.) in Costar 96-well cluster dishes at a concentration of 10,000 to 12,000 cells per well. Wells were suspended in 200 μl of medium [MDM(H) plus 0.7 gm/liter NaCHO3 supplemented with 10% calf serum] per well. After incubation of 16 to 24 hours at 37° C. in a humidified atmosphere of 4% CO2 in air, […] of medium was removed per well. One-hundred μl of medium with or without compounds in twice their final concentrations was added to each well using a Titertek Multichannel Pipette. Final concentrations of compounds ranged from 0.1 to 320 μM. Fifty μl of medium containing radioactive precursors also was added to each well to give a final concentration to 1 to 3 μCi/ml of labeled precursor. [^3 H]Thd was diluted with unlabeled dThd to give a final concentration of 3 or 6 μM.
Logarithmic cell growth occurred during this time with continual uptake of labeled precursors. At the end of the incubation period, cells were individually harvested from each well using a Skatron Cell harvester (Skatronh, Inc., Sterling, Va.). Cultures for individual wells were harvested onto filter paper and washed free of unincorporated label with nine sequential washes with 5% trichloroacetic acid, nine washes with water, and nine with ethanol using the Skatron unit. Filters were dried, circles from individual cultures were punched from the filter mat and placed into mini-vials. Liquid scintillation solution was added, and radioactivity determined in a Beckman model LS8100 liquid scintillation spectrometer. All samples were counted for 2.0 minutes each, with three rounds of counting. Counts per minute were determined following the application of statistical methods to eliminate count rates which fell outside distribution limits defined by Chauvenet's rejection criterion.
All analyses were performed in triplicate. That is, three culture wells were used per time point, radioactive precursor, and drug concentration in all experiments. Results from triplicate assays were converted to percent of control and plotted as log dose-response curves from which 50% inhibitor (I50) concentrations were interpolated. Three concentrations of vidarabine were included on all plates as a positive control.
as §4

[4] = tested on: HFF cells; assay: Growth of HFF cells; format: cell-based, human; settings: for HFF population doublings in 70 hours: 100 μM, control two doublings
Method: Population doubling times and cell viability were measured in uninfected HFF and/or KB cells. Cells were planted in replicate 6-well plastic tissue culture dishes or in 25 cm^2 flasks as described above in part 1. Following an incubation period during which cells attached to the substrate, medium was decanted, the cell sheet rinsed once with HBS, and fresh medium added. The medium consisted of MEM(E) with 1.1 gm NaHCO3 /liter and 10% fetal bovine or calf serum plus appropriate log or half-log concentrations of drug. After additional periods of incubation from 1 to 72 hours at 37° C., cells were harvested by means of 0.05% trypsin plus 0.02% EDTA in a HEPES-buffered salt solution. Cells were enumerated using either a Coulter counter or a hemocytometer and viability determining using trypsan blue dye exclusion.
The effect of these compounds on the growth of human diploid fibroblasts (HFF cells) was less pronounced. During a 70-hour incubation, control cells underwent two doublings. […] A 100 μM concentration reduced the number of cells by less than 10%.

[5] = Human alphaherpesvirus 1, Table 1, I90, strain S148, KB cells

Row | SMILES | IC90 [1, 5] [µM] | activity against HSV-1 (in words) [2] | IC50 [2] [µM] | IC50 [3] [µM] | effect on growth of HFF cells relative to UMJD 100 (in words) [4] | HFF population doublings in 70 hours ([4]; 70 hours) | effect on number of HFF cells present at 70 hours (in words) ([4]; 10 or 32 μM, 70 hours) | IC90 ([1]; Human alphaherpesvirus 1, KB) [µM]
1 | Nc1ncnc2c1c(Br)cn2COCCO [UMJD 102, 4-Amino-5-bromo-7-(2-hydroxyethoxymethyl)pyrrolo[2,3-d]-pyrimidine] | 30 | less potent activity | 11 | 0.13 | more pronounced | one population doubling |  | 
2 | Nc1ncnc2c1c(Br)cn2COC(CO)CO [UMJD 183, 4-amino-5-bromo-7-[(1,3-dihydroxy-2-propoxy)methyl]-pyrrolo[2,3-d]pyrimidine] | 17 |  | 2 |  |  |  |  | 
3 | Nc1ncnc2c1c(Cl)cn2COCCO [UMJD 100, 4-Amino-5-chloro-7-(2-hydroxyethoxymethyl)pyrrolo[2,3-d]-pyrimidine] | 50 | less potent activity | 77 | 0.82 |  |  | no decrease in the number of cells | 
4 | Nc1nc(O)c2ncn(COC(CO)CO)c2n1 [Ganciclovir (DHPG), reference compound] |  |  | 4.5 |  |  |  |  | 1.2
5 | OCC(CO)OCn1cc(Br)c2c(NO)ncnc21 [UMJD 299, 4-hydroxylamino-5-bromo-7-[(1,3-dihydroxy-2-propoxy)methyl]pyrrolo[2,3-d]pyrimidine] | > 100 |  | 2.9 |  |  |  |  | 
6 | Nc1ncnc2c1c(I)cn2COCCO [UMJD 104, 4-Amino-5-iodo-7-(2-hydroxyethoxymethyl)pyrrolo[2,3-d]-pyrimidine] | > 100 | less potent activity | 250 | 1.2 | more pronounced | one population doubling |  | 
7 | Nc1nc2c(ncn2COCCO)c(=O)[nH]1 [Acyclovir, reference compound] | 7 |  | 4 |  |  |  |  | 
8 | Nc1ncnc2c1c(Cl)cn2COC(CO)CO [UMJD 186, 4-amino-5-chloro-7-[(1,3-dihydroxy-2-propoxy)-methyl]pyrrolo[2,3-d]pyrimidine] | 3.5 |  | 16 | 28 |  |  |  | 
